Laboratory results reported in patent publication US11572590B2, “Methods for evaluating tumor cell spheroids using 3D microfluidic cell culture device” (Dana-Farber Cancer Institute, Inc., priority 2017, dated 2023).
Where two headings read alike, the source gives them in different places.

Legend:
Experiment in all cases: SelectScreen Kinase Profiling, single point inhibition and IC50 for off-target kinases
Assay type in all cases: biochemical
off-target kinases [1] = target: off-target kinases (Homo sapiens, UniProt P00533); settings: EGFR (ErbB1), ZLYTE, ATP Km app
off-target kinases [2] = target: off-target kinases (Homo sapiens, UniProt Q9UM73, C1156Y); settings: ALK C1156Y (mutant), LanthaScreen Binding
off-target kinases [3] = target: off-target kinases (Homo sapiens, UniProt Q99558); settings: MAP3K14 (NIK), LanthaScreen Binding
off-target kinases [4] = target: T1, off-target kinases (Homo sapiens, UniProt P42679); settings: MATK (HYL), ZLYTE, ATP Km app
T1 sequence (P42679 1-507): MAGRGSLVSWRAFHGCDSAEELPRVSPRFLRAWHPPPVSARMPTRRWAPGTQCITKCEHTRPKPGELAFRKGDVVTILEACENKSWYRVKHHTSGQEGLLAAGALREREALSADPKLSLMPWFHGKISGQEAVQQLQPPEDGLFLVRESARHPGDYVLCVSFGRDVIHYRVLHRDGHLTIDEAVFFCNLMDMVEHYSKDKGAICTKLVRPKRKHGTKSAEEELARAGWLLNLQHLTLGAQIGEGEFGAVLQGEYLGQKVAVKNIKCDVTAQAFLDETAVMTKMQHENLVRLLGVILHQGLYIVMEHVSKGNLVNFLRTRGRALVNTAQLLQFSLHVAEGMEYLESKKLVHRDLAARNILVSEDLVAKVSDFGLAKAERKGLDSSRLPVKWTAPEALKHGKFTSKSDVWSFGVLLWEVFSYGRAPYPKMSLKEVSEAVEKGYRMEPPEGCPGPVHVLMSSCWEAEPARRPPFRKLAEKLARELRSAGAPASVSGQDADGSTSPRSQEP

off-target kinases [5] = target: T2, off-target kinases (Homo sapiens, UniProt P21709); settings: EPHA1, ZLYTE, ATP Km app
T2 sequence (P21709 26-976): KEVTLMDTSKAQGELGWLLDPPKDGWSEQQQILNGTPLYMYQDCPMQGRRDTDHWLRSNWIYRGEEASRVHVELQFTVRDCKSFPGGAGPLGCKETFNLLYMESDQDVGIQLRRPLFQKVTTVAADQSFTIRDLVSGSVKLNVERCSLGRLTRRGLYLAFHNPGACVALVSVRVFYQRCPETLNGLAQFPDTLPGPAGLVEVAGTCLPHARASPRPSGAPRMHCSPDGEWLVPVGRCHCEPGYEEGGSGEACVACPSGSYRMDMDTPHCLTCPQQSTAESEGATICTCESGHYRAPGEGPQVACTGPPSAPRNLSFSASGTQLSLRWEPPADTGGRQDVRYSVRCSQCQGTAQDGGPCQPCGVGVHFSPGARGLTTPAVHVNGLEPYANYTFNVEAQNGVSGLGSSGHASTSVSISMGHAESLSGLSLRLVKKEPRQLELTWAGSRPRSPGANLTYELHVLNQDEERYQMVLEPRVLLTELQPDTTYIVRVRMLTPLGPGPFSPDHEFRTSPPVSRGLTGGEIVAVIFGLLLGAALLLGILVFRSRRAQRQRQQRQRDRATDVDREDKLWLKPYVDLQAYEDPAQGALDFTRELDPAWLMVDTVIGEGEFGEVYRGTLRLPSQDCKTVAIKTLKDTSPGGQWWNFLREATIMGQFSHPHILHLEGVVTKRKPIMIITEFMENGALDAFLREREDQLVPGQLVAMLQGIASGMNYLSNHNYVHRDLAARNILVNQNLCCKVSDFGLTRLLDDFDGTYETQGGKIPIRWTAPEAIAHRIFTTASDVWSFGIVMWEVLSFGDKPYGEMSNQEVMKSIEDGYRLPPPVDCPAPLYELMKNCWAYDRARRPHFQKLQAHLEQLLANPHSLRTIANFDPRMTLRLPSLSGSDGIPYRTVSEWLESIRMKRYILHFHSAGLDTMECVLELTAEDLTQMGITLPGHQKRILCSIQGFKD

Sequence of off-target kinases (Homo sapiens, UniProt Q9UM73, C1156Y) (Q9UM73 19-1620 C1156Y): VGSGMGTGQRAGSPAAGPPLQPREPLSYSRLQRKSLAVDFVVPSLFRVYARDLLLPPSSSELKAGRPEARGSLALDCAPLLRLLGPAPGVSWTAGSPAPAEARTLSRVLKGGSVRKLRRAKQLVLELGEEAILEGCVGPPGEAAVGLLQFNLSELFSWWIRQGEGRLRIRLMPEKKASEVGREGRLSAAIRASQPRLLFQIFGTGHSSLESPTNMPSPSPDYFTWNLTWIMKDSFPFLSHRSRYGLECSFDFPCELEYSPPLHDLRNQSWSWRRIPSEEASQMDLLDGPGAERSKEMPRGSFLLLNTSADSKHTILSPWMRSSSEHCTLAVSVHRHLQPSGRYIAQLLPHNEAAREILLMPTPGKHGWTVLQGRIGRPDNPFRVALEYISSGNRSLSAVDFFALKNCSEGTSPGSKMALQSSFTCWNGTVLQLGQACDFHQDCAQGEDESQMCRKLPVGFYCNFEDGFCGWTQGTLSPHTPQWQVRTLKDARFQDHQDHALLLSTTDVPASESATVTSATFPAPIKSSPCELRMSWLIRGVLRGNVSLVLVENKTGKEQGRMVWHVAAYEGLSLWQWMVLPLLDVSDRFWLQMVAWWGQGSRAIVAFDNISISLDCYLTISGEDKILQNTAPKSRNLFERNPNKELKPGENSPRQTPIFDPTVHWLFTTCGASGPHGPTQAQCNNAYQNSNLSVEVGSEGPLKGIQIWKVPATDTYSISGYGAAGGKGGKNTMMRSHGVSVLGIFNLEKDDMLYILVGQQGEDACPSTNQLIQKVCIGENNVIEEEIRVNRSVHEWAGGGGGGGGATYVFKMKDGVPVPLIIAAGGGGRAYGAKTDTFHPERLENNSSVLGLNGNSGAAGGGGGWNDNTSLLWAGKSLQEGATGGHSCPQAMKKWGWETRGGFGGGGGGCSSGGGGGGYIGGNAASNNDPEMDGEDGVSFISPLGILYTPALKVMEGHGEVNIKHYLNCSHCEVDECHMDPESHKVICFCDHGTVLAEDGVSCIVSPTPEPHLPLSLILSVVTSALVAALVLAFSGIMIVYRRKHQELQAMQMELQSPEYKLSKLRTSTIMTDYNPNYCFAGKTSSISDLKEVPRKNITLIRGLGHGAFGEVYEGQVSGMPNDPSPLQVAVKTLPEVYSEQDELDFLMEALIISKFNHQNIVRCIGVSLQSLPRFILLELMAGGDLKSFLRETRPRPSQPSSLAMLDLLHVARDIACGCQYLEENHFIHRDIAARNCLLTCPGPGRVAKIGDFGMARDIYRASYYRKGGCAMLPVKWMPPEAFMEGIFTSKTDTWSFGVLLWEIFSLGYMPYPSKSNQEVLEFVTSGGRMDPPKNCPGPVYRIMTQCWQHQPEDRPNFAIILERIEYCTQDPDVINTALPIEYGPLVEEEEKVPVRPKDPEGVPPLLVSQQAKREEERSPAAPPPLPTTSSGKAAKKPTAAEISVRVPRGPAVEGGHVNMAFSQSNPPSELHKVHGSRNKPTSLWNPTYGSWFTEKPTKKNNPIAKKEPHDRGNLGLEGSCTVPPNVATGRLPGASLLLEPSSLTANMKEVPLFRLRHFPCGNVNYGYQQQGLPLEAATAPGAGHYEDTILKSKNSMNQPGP
Sequence of off-target kinases (Homo sapiens, UniProt P00533) (P00533 25-1210): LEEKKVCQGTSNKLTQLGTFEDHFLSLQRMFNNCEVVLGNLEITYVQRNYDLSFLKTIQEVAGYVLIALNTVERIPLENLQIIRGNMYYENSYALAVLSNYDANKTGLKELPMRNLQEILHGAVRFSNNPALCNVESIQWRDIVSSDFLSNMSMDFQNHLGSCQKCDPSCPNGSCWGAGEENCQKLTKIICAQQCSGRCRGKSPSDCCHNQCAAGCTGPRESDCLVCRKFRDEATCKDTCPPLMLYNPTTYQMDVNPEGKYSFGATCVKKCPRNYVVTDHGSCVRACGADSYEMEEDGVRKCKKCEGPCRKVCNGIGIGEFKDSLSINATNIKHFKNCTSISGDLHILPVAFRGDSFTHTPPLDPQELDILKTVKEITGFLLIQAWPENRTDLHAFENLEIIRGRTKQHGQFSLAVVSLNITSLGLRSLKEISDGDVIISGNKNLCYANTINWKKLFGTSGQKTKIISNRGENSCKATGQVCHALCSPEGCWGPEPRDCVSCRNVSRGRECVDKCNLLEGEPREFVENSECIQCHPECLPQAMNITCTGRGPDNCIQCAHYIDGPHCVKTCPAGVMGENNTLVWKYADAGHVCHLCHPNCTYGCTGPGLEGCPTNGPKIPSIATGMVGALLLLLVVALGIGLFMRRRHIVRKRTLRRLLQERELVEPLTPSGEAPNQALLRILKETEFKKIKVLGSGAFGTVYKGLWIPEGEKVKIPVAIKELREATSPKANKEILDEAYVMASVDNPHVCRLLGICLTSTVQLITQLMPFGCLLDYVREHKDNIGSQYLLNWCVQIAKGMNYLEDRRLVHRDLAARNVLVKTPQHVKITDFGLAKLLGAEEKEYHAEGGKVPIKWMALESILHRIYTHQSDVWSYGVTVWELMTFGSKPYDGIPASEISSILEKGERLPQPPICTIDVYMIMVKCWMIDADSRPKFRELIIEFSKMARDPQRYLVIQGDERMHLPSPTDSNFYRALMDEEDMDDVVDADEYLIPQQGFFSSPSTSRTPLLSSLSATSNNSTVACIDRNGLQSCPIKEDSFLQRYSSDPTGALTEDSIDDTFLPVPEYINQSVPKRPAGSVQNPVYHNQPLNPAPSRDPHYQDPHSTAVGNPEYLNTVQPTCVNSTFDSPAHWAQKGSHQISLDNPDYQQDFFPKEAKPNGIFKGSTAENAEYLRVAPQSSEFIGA
Sequence of off-target kinases (Homo sapiens, UniProt Q99558) (Q99558 whole entry): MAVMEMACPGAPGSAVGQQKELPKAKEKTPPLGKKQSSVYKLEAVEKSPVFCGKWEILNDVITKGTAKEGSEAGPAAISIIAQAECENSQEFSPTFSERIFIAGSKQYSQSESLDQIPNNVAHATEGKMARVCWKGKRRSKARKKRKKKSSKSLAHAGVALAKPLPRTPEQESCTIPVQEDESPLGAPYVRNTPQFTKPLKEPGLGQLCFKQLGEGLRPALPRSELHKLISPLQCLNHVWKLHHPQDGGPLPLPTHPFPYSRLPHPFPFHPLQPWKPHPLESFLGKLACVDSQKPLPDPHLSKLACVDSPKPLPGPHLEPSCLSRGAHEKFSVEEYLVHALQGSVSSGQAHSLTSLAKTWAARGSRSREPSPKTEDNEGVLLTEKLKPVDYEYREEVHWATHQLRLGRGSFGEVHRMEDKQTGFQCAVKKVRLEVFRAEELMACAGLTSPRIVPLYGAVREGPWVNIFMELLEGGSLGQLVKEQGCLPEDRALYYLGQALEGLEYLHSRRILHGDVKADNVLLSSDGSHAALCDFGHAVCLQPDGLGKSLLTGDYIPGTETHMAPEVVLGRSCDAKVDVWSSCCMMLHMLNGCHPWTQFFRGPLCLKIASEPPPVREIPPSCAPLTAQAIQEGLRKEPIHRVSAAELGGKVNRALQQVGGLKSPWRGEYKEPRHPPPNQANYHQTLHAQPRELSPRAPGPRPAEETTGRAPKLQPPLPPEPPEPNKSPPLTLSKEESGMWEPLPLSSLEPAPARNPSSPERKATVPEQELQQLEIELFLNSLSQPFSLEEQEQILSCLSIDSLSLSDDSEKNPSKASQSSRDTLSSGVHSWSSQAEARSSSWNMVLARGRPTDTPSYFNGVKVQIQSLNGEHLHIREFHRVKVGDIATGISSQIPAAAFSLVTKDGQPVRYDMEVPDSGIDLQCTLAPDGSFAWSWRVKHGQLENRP

## N#Cc1cc(-c2ncnc(Nc3ccc(N4CCN(C5COC5)CC4)cc3)n2)ccc1OC1CCOCC1 [Compound 1, 5-(4-((4-(4-(oxetan-3-yl)piperazin-1-yl)phenyl)amino)-1,3,5-triazin-2-yl)-2-((tetrahydro-2H-pyran-4-yl)oxy)benzonitrile]
off-target kinases [1]; read-out: % Inhibition 1
  inhibition: 10%
off-target kinases [1]; read-out: % Inhibition 2
  inhibition: 9%
off-target kinases [1]; read-out: % Inhibition Avg
  inhibition: 9%
off-target kinases [2]; read-out: % Inhibition 1
  inhibition: 7%
off-target kinases [2]; read-out: % Inhibition 2
  inhibition: 12%
off-target kinases [2]; read-out: % Inhibition Avg
  inhibition: 9%
off-target kinases [3]; read-out: % Inhibition 1
  inhibition: 20%
off-target kinases [3]; read-out: % Inhibition 2
  inhibition: 24%
off-target kinases [3]; read-out: % Inhibition Avg
  inhibition: 22%
off-target kinases [4]; read-out: % Inhibition 1
  inhibition: 1%
off-target kinases [4]; read-out: % Inhibition 2
  inhibition: 2%
off-target kinases [4]; read-out: % Inhibition Avg
  inhibition: 2%
off-target kinases [5]; read-out: % Inhibition 1
  inhibition: 29%
off-target kinases [5]; read-out: % Inhibition 2
  inhibition: 24%
off-target kinases [5]; read-out: % Inhibition Avg
  inhibition: 27%
